The values that follow come from patent publication US12631620B2, “Methods of generating organoids for high throughput screening of drugs” (Yissum Research Development Company of the Hebrew …, priority 2019, dated 2026).

Values joined by “and” are separate entries in the source; they are usually repeats but may differ in a detail not shown here. Equal entries are not always repeated.

The conditions of data set [1]: cited from earlier work.
Data set [2] deals with E6/E7^LOW human hepatocytes. Briefly: Steatosis and phospholipidosis, HCS LipidTOX detection kit, hepatocyte cultures. Format: cell-based. The protocol: Quantification of Apoptotic index was performed using DeadEnd™ fluorometric TUNEL System (Promega) according to manufacturer directions. Briefly, cells were treated with TC20 concentrations of compounds dissolved in culture medium for 24 hours, and subsequently fixed in 4% Paraformaldehyde (PFA). Cells were then permeabilized and exposed to fluorescein-12-dUTP and terminal deoxynucleotidyl transferase (TdT). The reaction was subsequently stopped and the cells counterstained with 1 μg/mL Hoechst 33258. Apoptotic cells were positive for green fluorescence in the nucleus. Percentage apoptosis was defined as the number of TUNEL positive nuclei normalized to Hoechst 33258 positive nuclei. Quantification of Steatosis was performed using HCS LipidTOX™ Phospholipidosis and Steatosis Detection Kit (ThermoFisher). Briefly, differentiated cells were incubated with different concentrations of compounds dissolved in culture medium and 1× Phospholipidosis Detection Reagent for 48 hours, subsequently fixed in 4% PFA. Cells were then stained with 1× LipidTOX™ for 20 minutes and counterstained with 1 μg/mL Hoechst 33258. Staining intensity was normalized to number of Hoechst 33258 positive nuclei. Quantification of Bile Secretion was performed using 5(6)-carboxy-2′,7′-dichlorofluorescein diacetate (CDFDA) staining. Briefly, differentiated cells were incubated with different concentrations of compounds dissolved in culture medium for 24 hours. Cells were then treated with 10 μg/mL CDFDA and 1 μg/mL Hoechst 33342 for 30 minutes. Incubation medium was removed and cultures washed with ice-cold PBS containing calcium and magnesium. Staining intensity was normalized to number of Hoechst 33342 positive nuclei. Analysis excluded Intracellular CDFDA staining based on intensity and phase images. All quantifications were made in comparison to cells treated with melatonin as negative control.
Quantification of Apoptotic index was performed using DeadEnd™ fluorometric TUNEL System (Promega) according to manufacturer directions. Briefly, cells were treated with TC20 concentrations of compounds dissolved in culture medium for 24 hours, and subsequently fixed in 4% Paraformaldehyde (PFA). Cell were then permeabilized and exposed to fluorescein-12-dUTP and terminal deoxynucleotidyl transferase (TdT). The reaction was subsequently stopped and the cells counterstained with 1 μg/mL Hoechst 33258. Apoptotic cells were positive for green fluorescence in the nucleus. […] Quantification of Steatosis was performed using HCS LipidTOX™ Phospholipidosis and Steatosis Detection Kit (ThermoFisher). […] Quantification of Bile Secretion was performed using 5(6)-carboxy-2′,7′-dichlorofluorescein diacetate (CDFDA) staining. […] All quantifications were made in comparison to cells treated with melatonin as negative control.

For data set [3], the system named is HepG2/C3A organoids. Briefly: Real-time oxygen uptake toxicity (TC50, time to onset, lowest exposure level) in differentiated HepG2/C3A organoids. Format: cell-based, human. The note with it: for TC50: oxygen uptake; for lowest exposure level (LEL): horizontal asymptote, onset of damage at infinite time. The protocol:
A suspension of HepG2/C3A cells and CPOx-50-RuP beads (Colibri Photonics, Germany) were suspended in 2.5 mg/ml rat tail collagen type I (Corning, USA) at a cell density of 7×10^5 cells/μl. A volume of 1.1 μl of the gel-imbedded mixture was injected into each microwell and left to form spontaneously until their metabolic activity stabilized around day 4.
Fifty-micrometer-diameter polystyrene microbeads were loaded with ruthenium-phenanthroline-based phosphorescence dye (CPOx-50-RuP). […] Oxygen acts as a quencher, leading to a decrease in decay time and signal intensity with increasing concentration. The present inventors chose to measure decay time, rather than signal intensity, as it is not sensitive to changes in probe concentration or excitation intensity over the course of the experiment. The signal was measured using the OPAL system (Colibri Photonics, Germany) that comprises of a control module, 532 nm LED excitation source, and a photomultiplier (PMT) detector mounted on the ocular of an IX81 Olympus microscope (Olympus, Japan). A filter cube with 531/40 (Ex), 555, 607/70 (Em) was inserted in the optical light path during measurements. To accurately measure decay time, the present inventors chose phase modulation in which sinusoidal amplitude-modulated light is shifted in phase due to oxygen quenching. To overcome the superposition of in-phase background fluorescence that alters the phase of the detected signal, the present inventors used a novel 53.5 and 31.3 kHz two-frequency phase modulation that allowed to screen out the interference [Schmalzlin E., et al., 2005. Biophysical journal, 89: 1339-1345; Papkovsky, D. B. et al., 2004. Methods in enzymology, 381, 715-735; Ast, C., et al., 2012. Sensors (Basel), 12: 7015-7032; Engelhard, S., et al., 2006. Analytical and bioanalytical chemistry, 384: 1107-1112; Prill, D. et al., 2016, Archives of toxicology, 90: 1181-1191]. Measurements were carried out by averaging five consecutive 4-s exposures. Measurements were taken every 15 minutes. Under similar conditions, 28 days of measurement of organoids was done with no apparent phototoxicity, signal drift, or relevant loss of signal intensity (Schmalzlin E., et al., 2005. Biophysical journal, 89: 1339-1345). Assessment of Cellular Toxicity and Time to Onset
Organoids were exposed to different concentrations of compounds dissolved in culture medium. Cell viability was determined by oxygen uptake following 24 hours of exposure unless otherwise noted. TC50 concentrations were determined using MATLAB by sigmoidal curve fitting (Wenner, M. M. et al., 2011, J Appl Physiol (1985), 111: 1703-1709; Prentice, R. L. et al., 1976, Biometrics, 32: 761-768). Time to onset was analyzed by MATLAB based on LPF and trend assessment.
To find the asymptotic concentration for which damage occurs only at infinite exposure time, the present inventors used a previously developed model for accumulative drug exposure (El-Kareh et al., 2000. Neoplasia, 2: 325-338; Currie, G. M. 2018. J Nucl Med Technol, DOI: 10.2967/jnmt.117.199588). The model is based on the steady-state dynamics of flux accumulation, using a linear first-order approximation of the cell membrane. The flux behavior is described by
where J(C) is the concentration dependent flux, Jmin is the minimal flux that will cause an effect, t is time of exposure and |τ is a drug-cell specific constant accounting reaction dynamics (Gowrishankar et al., 2003. Proceedings of the National Academy of Sciences of the United States of America, 100: 3203-3208; Kotnik T. et al., 2000. IEEE Trans Biomed Eng, 47: 1074-1081). In the present case, t is the Time to Onset (TTO) of damage creating a bi-asymptotic behavior. This adapted model is used to describe lowest exposure level (LEL) under first order, steady state assumptions, as
Real-time oxygen measurements were performed optically using on-chip lifetime-based luminescence quenching (LBLQ). […]

Data set [4] deals with HepG2/C3A organoids. Briefly: Neutral lipid and phospholipid staining of HepG2/C3A organoids on chip. The format is cell-based, human. The following applies: p<0.001, n=9.
In another data set the test system is E6/E7^LOW hepatocytes. The note with it: flux balance analysis, below threshold of cellular damage; Valproate sustained, Stavudine transient. The protocol:
According to some embodiments of the invention there is a sensor-integrated liver on chip array in which oxygen is monitored using two-frequency phase modulation of tissue-embedded phosphorescent microprobes, while glucose, lactate and temperature are measured in real time using microfluidic electrochemical sensors. Such a microphysiological platform permits the calculation of dynamic changes in metabolic fluxes around central carbon metabolism, producing a unique metabolic fingerprint of the liver's response to stimuli.

Take `CCCC(CCC)C(=O)O` [Valproate, 2-n-propylpentanoic acid]: the “patients with evidence of steatosis” value in data set [1] (abdominal ultrasound) is on record as 61%. Moreover, in data set [1] (patients on therapy), the “patients with elevated liver enzymes” value is given as “Over 40%”. Also, the phospholipidosis result in data set [2] is recorded as “Evidence of phospholipidosis was seen”. Further, the neutral lipids entry in data set [2] (p<0.001, n=4) is “strong and significant increase”. Moreover, the TC50 with HepG2/C3A organoids [3] (at 24 hours) is 27 mM; with HepG2/C3A organoids [3] (at 42 hours), 14 mM and 14 ± 2 mM. Besides, in the data set with HepG2/C3A organoids [3] (dose-dependent range over concentrations tested), the “Time to onset (TTO) of response” value was 6 to 36 h. For the same compound, the “lowest exposure level (LEL)” value in the data set with HepG2/C3A organoids [3] (± standard error) and in the data set with HepG2/C3A organoids [3] (± standard error of curve fit) was 280 ± 97 µM each time. Also, the “TC50 plateau value as a function of time” value in the data set with HepG2/C3A organoids [3] (plateau of TC50 over time) is on record as “around 5 mM”. Further, the direct mitochondrial damage entry with HepG2/C3A organoids [3] (sub-toxic levels) was “no indication of direct mitochondrial damage”. The “increase in the amount of intracellular lipids” value with HepG2/C3A organoids [4] turned out to be 4 fold. Moreover, the increase in lipogenesis in the data set on E6/E7^LOW hepatocytes was 15%.
